Results published in patent US20170044150A1, “IDENTIFICATION OF COMPOUNDS WHICH INHIBIT ATG8-ATG3 PROTEIN-PROTEIN INTERACTION AND THEIR USE AS ANTIPARASITICAL AGENTS” (THE JOHNS HOPKINS UNIVERSITY, priority 2014, published 2017).
Read-outs that look alike come from different tables or passages of the source.

Experiments:
[1] = molecular target: PfAtg8-PfAtg3 interaction (Plasmodium falciparum, UniProt Q8IJK2); type: binding, P. falciparum
P. falciparum 3D7 = assay: SYBR Green I growth inhibition assay, blood stage; type: cell-based; settings: Plasmodium falciparum
Procedure: P. falciparum blood stage culturing. P. falciparum 3D7 and FCR3 cultures were maintained using modified, previously published methods at 37° C., 2% hematocrit of human red blood cells (Science 1976, 193, 673-675). Complete culture media consisted of sterile RPMI 1640 media (Life Technologies), supplemented with 10% human serum, 0.005% hypoxanthine, and buffered with final concentrations of 0.6% HEPES and 0.26% NaHCO3. The FCR3 strain was maintained at 3% CO2 and 5% O2, 92% N2 atmosphere, while the 3D7 strain was maintained at 5% CO2, 5% O2, 90% N2 atmosphere.
SYBR Green I growth inhibition assay. 10 μL of 10× compound diluted in RPMI 1640 media (Gibco) with a constant concentration of 1% DMSO was added to a 96 well plate (Costar), 90 μL of 1.5% ring stage, synchronized with 5% w/v sorbitol P. falciparum 3D7 parasites, 1% hematocrit, in culture media with 10% v/v human serum with 10 μg/mL gentamycin. Each compound concentration and 1% v/v DMSO controls were run in triplicate. Plates were incubated at 37° C. in 5% O2, 5% CO2 and 90% N2 for 72 hours. Plates were frozen, thawed, and incubated with 100-μL 2× SYBR green in lysis buffer (20 mM Tris pH 7.5, 5 mM EDTA, 0.008% Saponin, 0.08% TritonX-100) in the dark for at least one hour. Fluorescence was measured with a plate reader (HTS 7000, Perkin Elmer) at excitation/emission wavelengths of 485/535 nm.
Plasmodium parasite growth inhibition assay. P. falciparum 3D7 parasites were cultured as previously described (J Med Chem 57:4521-4531(2014)). Briefly, the parasites were cultured in 10% v/v human serum with 10 μg/mL gentamycin and synchronized with 5% w/v sorbitol. 1.5% ring stage parasites were added to 96 well plates (Costar) containing serial dilutions, performed in triplicate, of compound in RPMI 1640 media (Gibco). Plates were incubated at 37° C. in 5% O2, 5% CO2, and 90% N2 for 72 h. Plates were frozen, thawed, and incubated with 100 μL 2× SYBR green in lysis buffer (20 mM Tris pH 7.5, 5 mM EDTA, 0.008% Saponin, 0.08% TritonX-100) in the dark for 1 h. Fluorescence was measured with a plate reader (HTS 7000, PerkinElmer) at excitation/emission wavelengths of 485/535 nm.

PfAtg8^CM [2] = molecular target: T1, PfAtg8^CM (Plasmodium falciparum, UniProt Q8IJK2); assay: SPR binding of PfAtg8^CM to immobilized compound 8; design: species or system P. falciparum
T1 construct: rows headed: KD; other: immobilized compound
T1 sequence (Q8IJK2 1-124 C32I/C119S/C122S): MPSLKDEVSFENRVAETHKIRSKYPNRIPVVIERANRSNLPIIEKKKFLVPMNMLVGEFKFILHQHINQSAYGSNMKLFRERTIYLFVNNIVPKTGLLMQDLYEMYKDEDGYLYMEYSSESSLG
Procedure: (§1) Direct binding of compound 8 to PfAtg8^CM. Compound 8 was injected over a neutravidin-coated SPR chip (GE Healthcare) on one flowcell, with 130 RUs immobilized, while BACH was injected over a reference flowcell (150 RUs immobilized). His6-PfAtg8^CM, Human LC3, or His6-PfAtg3 was injected in duplicate in running buffer containing 10 mM HEPES pH 7.5, 150 mM NaCl, 0.05% P20. Protein was dissociated from the chip after each cycle with 10 μL injection of 20 mM HEPES pH 7.4, 1% w/v SDS regeneration solution.
(§2) Synthesis of a novel PTA derivative with a functional handle. […] A PTA-benzaldehyde derivative, 4-formyl-N-(4-pyridin-2-yl-1,3-thiazol-2-yl)benzamide (compound 7) was synthesized with a functional handle extending off the common hydrophobic ring system (Table 1, Scheme 1). Compound 7 was prepared from commercially available PTA and 4-formyl benzoic acid through a DCC-promoted amide coupling. Compound 7 can be tethered through a dialkoxyamine linker to a library of aldehydes and screened using our primary SPR competition assay against the PfAtg8-PfAtg3 interaction. In docking studies, compound 7 bound the W- and L-site of PfAtg8 in a fashion similar to compound 2, with the functional handle positioned towards the A-loop pocket (FIG. 7A). A gain in parasite selectivity for such bifunctional analogs is expected as the A-loop is missing in the human Atg8 homologues. […]

hLC3 = molecular target: T2, hLC3 (Homo sapiens, UniProt Q9GZQ8); assay: SPR binding of hLC3 to immobilized compound 8
T2 construct: made in house
Procedure: as §1, §2

PfAtg3 = molecular target: T3, PfAtg3 (Plasmodium falciparum, UniProt C0H519); assay: SPR binding of PfAtg3 to immobilized compound 8; settings: data not shown
T3 construct: made in house
T3 sequence (C0H519 1-313): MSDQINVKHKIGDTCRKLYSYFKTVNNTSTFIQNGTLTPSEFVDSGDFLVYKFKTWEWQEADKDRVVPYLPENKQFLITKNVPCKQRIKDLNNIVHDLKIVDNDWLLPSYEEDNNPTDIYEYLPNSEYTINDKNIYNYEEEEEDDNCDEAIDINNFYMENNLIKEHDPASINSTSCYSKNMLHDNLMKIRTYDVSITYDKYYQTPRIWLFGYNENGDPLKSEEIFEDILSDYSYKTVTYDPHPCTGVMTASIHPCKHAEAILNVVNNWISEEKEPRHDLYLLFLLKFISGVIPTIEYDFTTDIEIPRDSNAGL
Procedure: as §1, §2

P. falciparum 3D7-GFP = type: cell-based; settings: for decrease in the proportion of infected hepatocytes (GFP+/PI- cells): 72 hours post infection
Procedure: In vitro infection of human hepatocytes with P. falciparum 3D7-GFP. The HC-04 cell line (ATCC, Manassas, Va., USA) was maintained in complete medium (IMDM containing 2.5% FCS, 100 units/ml penicillin, 100 μg/ml streptomycin and 2 mM L-glutamine, all from GIBCO®, Life Technologies, Grand Island, N.Y.). P. falciparum 3D7-GFP parasite strain (PLoS ONE 2010, 5, e9156) was propagated in the Parasitology Core facility, the Johns Hopkins Malaria Research Institute. In vitro infection of human hepatocytes was done as described previously (PLoS ONE 2013, 8, e75321). Briefly, salivary glands were sequestered from infected Anopheles gambiae mosquitoes at day 17 after exposure to infective blood meal and homogenates were separated on an OptiPrep™ Density Gradient (Sigma-Aldrich, St. Louis, Mo.) at 12,000×g for 10 minutes. Sporozoites were collected from the gradient interface, washed in complete medium, counted using a hemocytometer and incubated with HC-04 cells at 3:1 sporozoite to hepatocyte ratio for 2 hours at 37° C. […]
Detection of P. falciparum exoerythrocytic forms in vitro. HC-04 human hepatocyte cell line (ATCC, Manassas, Va., USA) was maintained in complete medium (IMDM containing 2.5% FCS, 100 units/ml penicillin, 100 μg/ml streptomycin and 2 mM L-glutamine, all from GIBCO®, Life Technologies, Grand Island, N.Y.). P. falciparum 3D7HT-GFP parasite strain (PLoS One. 5(2):e9156. doi:10.1371/journal.pone.0009156 (2010)) was propagated in the Parasitology Core facility of the Johns Hopkins Malaria Research Institute. In vitro infection of human hepatocytes, and detection and quantification of P. falciparum 3D7HT-GFP EEFs by flow cytometry were performed as previously described (PLoS One. 8(9):e75321. doi:10.1371/journal.pone.0075321 (2013)).

HC-04 cells = assay: HC-04 hepatocyte viability / cytotoxicity (Annexin-V, PI flow cytometry); type: cell-based, human; settings: 30 μM
Procedure: Detection of Annexin-V positive and PI-positive cells in hepatocyte cultures was done by flow cytometry according to the manufacturer's instruction (Invitrogen™, Life Technologies, Grand Island, N.Y., USA).
Hepatocyte cytotoxicity assay. Hepatocyte cytotoxicity assays were carried out in triplicate at two concentrations of inhibitory compounds using HC-04 cells as previously described. Flow cytometry was used to assess two cytotoxicity markers via staining, namely propidium iodine (PI) and Annexin-V.

PfAtg8 = assay: Immunoblot analysis of PfAtg8 in P. falciparum blood stage cultures; type: cell-based; settings: for lipidation of PfAtg8: 12 hours
Description: Immunoblot analysis of P. falciparum blood stage. […] RBCs were harvested with centrifugation, lysed with 0.2% saponin, and RBC lysate was removed through three 1× PBS washes. Parasites were harvested by centrifugation and washed in 1× PBS with Complete EDTA-free protease inhibitors (Roche) and lysed by repeated vortexing and boiling in SDS reducing sample buffer. […] HRP-conjugated secondary antibodies (Southern Biotech) were detected by SuperSignal West Femto (Thermo Scientific) or Amersham™ ECL™ Prime (GE Healthcare) chemiluminescent substrate. AP-conjugated secondary antibodies (EMD Millipore) were detected using NBT/BCIP (Promega) colorimetric stain. Total protein levels were visualized with ProAct™ Membrane Stain (Amresco) and quantified with ImageJ. Parasite morphology at time of harvesting was visualized with light microscopy at 100× magnification on Olympus BX53 system microscope (Olympus America, Inc.).

P. yoelii liver stage = settings: screening concentration 10 μM; cited from earlier work
human cell lines = settings: cited from earlier work
PfAtg8^CM [3] = molecular target: PfAtg8^CM (Plasmodium falciparum, UniProt Q8IJK2); assay: SPR direct binding of compound 1 to immobilized His12-PfAtg8^CM; design: other: 2-fold dilution series, highest 75 μM; fused on or other part: N-terminal His12 tag; species or system P. falciparum; settings: 2-fold dilution series, highest 75 μM
Procedure: His12-PfAtg8^CM was injected over an NTA-chip (GE Healthcare) preconditioned with nickel, leading to capture of 3,000 response units (RUs). Running buffer contained 3% DMSO. A 2-fold-dilution series of compounds, highest concentration of 75 μM, was injected over PfAtg8 variants at 40 μL/minute.
Determination of the PTA binding site on PfAtg8. The inventors tested whether these compounds bound directly to PfAtg8 using SPR. PfAtg8^CM was immobilized onto an SPR Ni-NTA chip via a twelve histidine N-terminal tag. […] It was then sought to determine the binding site for the PTA compounds with in silico docking.

[4] = 3D7, no asterisk, read-out: IC50 Blood stage

| Compound | LEAN (SPR) ([1]; -log (IC50)/number of heavy atoms) | IC50 ([1]; read-out: IC50 SPR, inhibition of PfAtg8-PfAtg3 interaction) | IC50 (P. falciparum 3D7; [4]) | Kd (PfAtg8^CM [2]) | Kd (hLC3) | binding of recombinant PfAtg3 (PfAtg3) | IC50 (P. falciparum 3D7; 3D7, third experiment, read-out: IC50) | IC50 (P. falciparum 3D7; 3D7, two of three independent experiments, read-out: IC50) | IC50 (P. falciparum 3D7; 3D7, two to three experiments, read-out: average IC50) | intensity of GFP fluorescence (P. falciparum 3D7-GFP; 3 μM and 30 μM, 72 hours) | decrease in the proportion of infected hepatocytes (GFP+/PI- cells) (P. falciparum 3D7-GFP; 3 μM) | decrease in the proportion of infected hepatocytes (GFP+/PI- cells) (P. falciparum 3D7-GFP; 30 μM) | cell death in HC-04 cells (HC-04 cells) | lipidation of PfAtg8 (PfAtg8; 5 μM) | lipidation of PfAtg8 (PfAtg8; 25 μM and 50 μM) | PfAtg8 protein levels (PfAtg8; 50 μM, five hours) | mobility of PfAtg8 (PfAtg8; 50 μM, five hours) | inhibition in P. yoelii liver stage cultures (P. yoelii liver stage) | reported cytotoxicity in human cell lines (human cell lines) | SPR response, direct binding to PfAtg8^CM (PfAtg8^CM [3]) |
| --- | --- | --- | --- | --- | --- | --- | --- | --- | --- | --- | --- | --- | --- | --- | --- | --- | --- | --- | --- | --- |
| O=C(CCCC[C@H]1SC[C@H]2NC(=O)N[C@H]21)NCCCCCC(=O)NNCc1ccc(C(=O)Nc2nc(-c3ccccn3)cs2)cc1 [Compound 8, 4-[[2-[6-[5-[(3aR,4R,6aS)-2-Oxo-1,3,3a,4,6,6a-hexahydrothieno[3,4-d]imidazol-4-yl]pentanoylamino]hexanoyl]hydrazinyl]methyl]-N-(4-pyridin-2-yl-1,3-thiazol-2-yl)benzamide] | 0.22 | 2660 nM | 1480 nM | 540 nM | 18000 nM | did not bind | – | – | – | – | – | – | – | – | – | – | – | – | – | – |
| Cc1ccc(Nc2nc(-c3ccccn3)cs2)cc1 [Compound 1, N-(4-methylphenyl)-4-pyridin-2-yl-1,3-thiazol-2-amine] | – | – | 1470 nM | – | – | – | 3300 nM | 768 nM | 1610 ± 1470 nM | dose-dependent reduction | but not 3 μM | ~50% | did not observe cell death | dose-dependent decrease in lipidation | unlipidated PfAtg8 is exclusively detected | drastic increase | shift in mobility, likely corresponding to the unlipidated form of PfAtg8 | ≤ 50% | much lower than that of compounds 2 or 3 | dose-dependent increase in SPR response |
